The nature of the series: Solubility of CoQ10 in fish oil and fish oil concentrates under different conditions and time of storage. Format: physicochemical. As to conditions: for Solubility of CoQ10 in 1812TG, confirmed solubility / Solubility of CoQ10 in 4020EE, confirmed solubility: heating prior storage. The text has this: CoQ10 was solubilized in 0355 EE (fish oil concentrate in ethylester form containing 3% EPA and 55% DHA), 4020EE (fish oil concentrate in ethylester form containing 40% EPA and 20% DHA) and 1812TG (purified fish oil containing 18% EPA and 12% of DHA) and the final solubility was examined under different conditions and time of storage. All of these starting oils were manufactured by Ocean Nutrition Canada, Mulgrave, NS).

SMILES strings stand for the structures.

Take `COC1=C(OC)C(=O)C(C/C=C(\C)CC/C=C(\C)CC/C=C(\C)CC/C=C(\C)CC/C=C(\C)CC/C=C(\C)CC/C=C(\C)CC/C=C(\C)CC/C=C(\C)CCC=C(C)C)=C(C)C1=O` [CoQ10ox, 2,3-dimethyoxy-5-methyl-6-decaprenyl-1,4-benzoquinone]: the “Solubility of CoQ10 in 0355EE, confirmed solubility” value is, setting by setting: (0355EE (ethylester concentrate, 3% EPA, 55% DHA), solubility at RT, no heating prior storage) 6.6 %, w/w; (0355EE, solubility at 50° C.) 27%, w/w; (0355EE, storage at 4° C. (line after solubility at 50° C.)) 3.2%, w/w; (0355EE, storage at 4° C. for 24 h, no heating prior storage) 2.5 %, w/w. The “Solubility of CoQ10 in 1812TG, confirmed solubility” value runs as follows: (1812TG (purified fish oil, 18% EPA, 12% DHA), solubility at 50° C.) 11 %, w/w; (1812TG, storage at 4° C.) <2.9 %, w/w. Also, the “Solubility of CoQ10 in 4020EE, confirmed solubility” value is given as 9 %, w/w (4020EE (ethylester concentrate, 40% EPA, 20% DHA), solubility at 50° C.) and 5.7 %, w/w (4020EE, storage at 4° C.).
